Measured values taken from patent publication US20230285556A1, “METHODS AND COMPOSITIONS FOR TREATING CANCER” (Omeros Corporation, priority 2021, published 2023).
Where “and” joins values, the source holds several entries; their conditions need not be identical. Identical values can stand only once. Each block holds one molecule with its values, some of them ahead of it.

How the values were obtained:
human CD8 T cells [1] = test: Example 3: human CD8 T cell 10-day expansion with IL-7+IL-15 and inhibitors, IL-2 after restimulation; format: cell-based; conditions: 300 nM Compound #10, 500 nM Compound #49, 100 nM ZM-241385, 18 hours restimulation
Protocol: Purified human CD8 T cells were cultured in 24-well plates with the following conditions per well: • 2 mL X-VIVO™ 15 media (Lonza) • 1 million human CD8 T cells • 2 million Human T-Activator CD3/CD28 Dynabeads® (ThermoFisher) • 10 ng/mL human IL-7 (R&D Systems) • 10 ng/mL human IL-15 (R&D Systems)
and the following individual conditions for FIG. 4: • 1. DMSO vehicle control • 2. […] 300 nM GPR174 inhibitor Compound #10 • 4.
On days 4 and 7 (FIG. 4) or days 3, 5, and 7 (FIG. 5), cultures were washed and seeded at 0.5 cells million per well with the same GPR174 and A2A inhibitor conditions, and with 10 ng/mL IL-7 and 10 ng/mL IL-15.
After 18 hours of culture, supernatants were harvested and analyzed for IL-2 (MesoScale Discovery).

GPR174 [2] = molecular target: T1, GPR174 (Homo sapiens, UniProt Q9BXC1); test: CRA (EC50) of GPR174 inhibitor compounds, tested as described in US 20200276190; format: cell-based; conditions: multiple values = separate experiments
T1 sequence (Q9BXC1 whole entry): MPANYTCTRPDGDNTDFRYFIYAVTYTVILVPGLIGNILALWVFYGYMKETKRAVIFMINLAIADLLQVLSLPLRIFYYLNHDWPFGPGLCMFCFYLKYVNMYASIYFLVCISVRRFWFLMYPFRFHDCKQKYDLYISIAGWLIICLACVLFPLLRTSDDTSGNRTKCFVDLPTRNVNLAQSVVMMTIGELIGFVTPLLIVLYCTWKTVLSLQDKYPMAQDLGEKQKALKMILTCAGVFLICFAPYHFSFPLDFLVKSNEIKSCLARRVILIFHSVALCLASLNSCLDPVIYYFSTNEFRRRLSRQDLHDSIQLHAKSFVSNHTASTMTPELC
Protocol: (§1) Where present, multiple EC50 values correspond to values obtained in separate experiments. […] The activity of the compounds was tested as described in US 20200276190, the disclosure of which is incorporated herein by reference.

GPR174 [3] = molecular target: T1, GPR174; test: Human GPR174 CRE activity / Gs signaling; format: cell-based
Protocol: as §1

[4] = tested on: OT-I TCR transgenic CD8 T cells; test: Example 8: OT-I CD8 T cell 9-day expansion with PKA, p38, PI3Kδ inhibitors, IL-2 after restimulation with EG7 cells; format: cell-based, mouse
Protocol: DMSO vehicle control • 2. 0.5 μM doramapimod • 3. 500 μM Rp-8-Br-cAMPS • 4. 0.5 μM doramapimod+500 μM Rp-8-Br-cAMPS • 5. 1 μM idelalisib • 6. 1 μM idelalisib+0.5 μM doramapimod • 7. 1 μM idelalisib+500 μM Rp-8-Br-cAMPS • 8. 1 μM idelalisib+0.5 μM doramapimod+500 μM Rp-8-Br-cAMPS
On days 2, 4, 6, and 8, cells were counted, washed and reseeded at 0.5 million per well in 2 mL media with the same 8 conditions and with recombinant mouse IL-2 and IL-7 (5 ng/mL each). […] Cells were also washed three times (12 mL media each), and restimulated in quintuplicate in 96-well round-bottom plates with the following conditions: • 0.1 mL RP10 media • 0.05 million OT-I T cells from each condition • 0.05 million EG7 cells
(§2) After overnight culture, supernatants were harvested and analyzed for IL-2 content (MesoScale Discovery).

[5] = tested on: OT-I TCR transgenic CD8 T cells; test: Example 9: OT-I CD8 T cell 10-day expansion, immunophenotyping and IL-2 capacity; format: cell-based, mouse
human CD8 T cells [6] = test: Example 5: T cell number increase during 10-day expansion; format: cell-based
Protocol: (§3) DMSO vehicle control • 2. […] 500 μM Rp-8-Br-cAMPS • 4. […] 0.5 μM doramapimod • 6. Media control
(§4) or the following individual conditions for the experiment shown in FIG. 8, each ±0.5 μM doramapimod: • 1. DMSO vehicle control • 2. 500 μM Rp-8-Br-cAMPS • 3. […] 5 μM ESI-09
(§5) On days 3, 5, and 7, cultures were washed and seeded at 0.5 cells million per well with the same small molecule inhibitor conditions, and with IL-7 and IL-15. On day 10, cells were washed twice (12 mL media each), and restimulated in quadruplicate in 96-well round-bottom plates with the following conditions: • 0.1 mL X-VIVO™ 15 media (Lonza) • 0.05 million cells from each condition • 0.1 million Human T-Activator CD3/CD28 Dynabeads® (ThermoFisher)

[7] = tested on: OT-I TCR transgenic CD8 T cells; test: Example 6: OT-I CD8 T cell expansion with PKA and p38 inhibitors, IL-2 after restimulation with EG7 cells; format: cell-based, mouse; conditions: 0.2 μM doramapimod, 500 μM Rp-8-Br-cAMPS
Protocol: (§6) and the following individual conditions: • 1. DMSO vehicle control • 2. 0.2 μM doramapimod • 3. 500 μM Rp-8-Br-cAMPS • 4. 0.2 μM doramapimod+500 μM Rp-8-Br-cAMPS
On day 8, cells were immunophenotyped with the following antibodies: anti-CD8 BV570, anti-CD62L eFluor450, anti-TCF1/TCF7 PE, anti-CD39 PerCP-eFluor710, anti-CD69 BV605, anti-PD-1 BV711, anti-CTLA-4 APC, and LIVE/DEAD™ Fixable Green Dead Cell Stain.
as §2

EG7 tumors = test: Example 7: adoptive transfer of inhibitor-precultured OT-1 T cells into EG7 tumor-bearing mice; format: in vivo, mouse
Protocol: as §6
On day 6 cells were seeded in 6-well plates with […] per well, and on day 8 cells were seeded in T75 flasks in 30 mL media to obtain enough cells to transfer into EG7 tumor-bearing mice.
C57BL/6 female mice were implanted with 6 million EG7 tumor cells subcutaneously on day 4 of the OT-1 T cell expansion. On day 6 of tumor growth (day 10 of OT-1 T cell expansion) OT-1 T cells were washed and injected retro-orbitally into tumor bearing mice that had been sorted into 4 groups with equal tumor volume distributions (n=8). Via retroorbital injection, mice received 2 million OT1 T cells of each of the 4 culture conditions. Tumor volume (mm^3) was calculated as 0.5×(length×width^2), where length represents the largest tumor diameter and width represents the perpendicular tumor diameter. Mice were euthanized when the sum of the two measurements exceeded 30 mm.

[8] = tested on: OT-I TCR transgenic CD8 T cells; test: Example 6: immunophenotyping of OT-I T cells on day 8; format: cell-based, mouse; conditions: 8 days of culture
Protocol: as §6
On days 2, 4, 6, and 8, cells were counted, washed, and reseeded at 0.5 million per well in 2 mL media with the same 4 doramapimod/Rp-8-Br-cAMPS conditions and with recombinant mouse IL-2 and IL-7 (5 ng/mL each). On day 8, cells were immunophenotyped with the following antibodies: anti-CD8 BV570, anti-CD62L eFluor450, anti-TCF1/TCF7 PE, anti-CD39 PerCP-eFluor710, anti-CD69 BV605, anti-PD-1 BV711, anti-CTLA-4 APC, and LIVE/DEAD™ Fixable Green Dead Cell Stain.

human CD8 T cells [9] = test: Example 5: human CD8 T cell expansion with cAMP pathway and p38 inhibitors, IL-2 after restimulation; format: cell-based; conditions: 500 μM Rp-8-Br-cAMPS, 0.5 μM doramapimod
Protocol: as §3, §4, §5, §2

[10] = Idelalisib (agent together with 1 μM idelalisib)

Structure (SMILES): CC(C)Oc1ccc(C2C3=C(CCCC3=O)NC3=C2C(=O)c2ccccc23)cc1 (centres unmarked) [Compound 49]
IL-2 production following restimulation, fold vs vehicle (FIG. 5) (human CD8 T cells [1]): 1.9 fold

EC50 (GPR174 [2]): 1500 nM and 900 nM
Structure (SMILES): CCOC(=O)N1CCN(c2cc(N3CCC(C)CC3)c(F)cc2[N+](=O)[O-])CC1 [Compound 1]

Human GPR174 CRE Activity (type of modulation) (GPR174 [3]): Antagonist or allosteric modulator | EC50 (GPR174 [2]): 2700 nM
Structure (SMILES): Cc1cc(Cc2ccc(NC(=O)c3cccs3)c(C)c2)ccc1NC(=O)c1cccs1 [Compound 21]

Structure (SMILES): CC[C@H](Nc1ncnc2[nH]cnc12)c1nc2cccc(F)c2c(=O)n1-c1ccccc1 [idelalisib]
Fold-change in IL-2 production relative to Vehicle control [4, 10]: 24.0 | TCF-1 positive cells ([5]; Vehicle 10%): 27% | CTLA-4 positive cells ([5]; Vehicle 41%): 28% | PD-1 positive cells ([5]; Vehicle 75%): 75% | CD39 positive cells ([5]; Vehicle 87%): 63% | TIM-3 positive cells ([5]; Vehicle 88%): 60% | CD69 positive cells ([5]; Vehicle 95%): 74%

Human GPR174 CRE Activity (type of modulation) (GPR174 [3]): Antagonist or allosteric modulator | EC50 (GPR174 [2]): 5000 nM
Structure (SMILES): Cc1ccccc1Nc1nnc(-c2ccc(C)c(S(N)(=O)=O)c2)c2ccccc12 [Compound 20]

Human GPR174 CRE Activity (type of modulation) (GPR174 [3]): Antagonist or allosteric modulator | EC50 (GPR174 [2]): 4100 nM
Structure (SMILES): CC(=O)c1ccc(N2CCN(C(=O)c3ccc(F)cc3)CC2)c(F)c1 [Compound 3]

Human GPR174 CRE Activity (type of modulation) (GPR174 [3]): Antagonist or allosteric modulator
Structure (SMILES): Cc1cc(C(=O)N/N=C/c2cc(Br)ccc2O)c(C)o1 [Compound 58]

Structure (SMILES): Cc1ccc(-n2nc(C(C)(C)C)cc2NC(=O)Nc2ccc(OCCN3CCOCC3)c3ccccc23)cc1 [doramapimod]
Fold-change in IL-2 production relative to Vehicle control [4, 10]: 65.0 | Fold-change in IL-2 production relative to Vehicle control ([4]; column Vehicle (without idelalisib), 0.5 μM doramapimod, 500 μM Rp-8-Br-cAMPS): 2.2 | T cell growth during the 10-day culture relative to vehicle-treated cells (FIG. 8) (human CD8 T cells [6]): very little effect on cell growth | fold-increase in T cell number during the 10-day expansion (FIG. 7) (human CD8 T cells [6]; vehicle and media controls approximately 50-fold): approximately 50 fold | IL-2 production from 8-day OT-I cultures, fold vs vehicle control ([7]; day 8 restimulation with EG7 cells): 4.9 fold | IL-2 production from 10-day OT-I cultures, fold over vehicle control ([7]; day 10 restimulation with EG7 cells): 6.8 fold | tumor growth / tumor volume after transfer of precultured OT-1 T cells (EG7 tumors; 2 million OT-1 T cells expanded 10 days with 0.2 μM doramapimod and/or 500 μM Rp-8-Br-cAMPS, retro-orbital, relative to vehicle control cells): significantly halted and delayed tumor growth | survival of tumor-bearing mice (EG7 tumors; OT-1 T cells precultured with inhibitor(s), relative to vehicle group): intermediate survival times | increase in cells expressing both CD62L and TCF1/TCF7 relative to vehicle control [8]: smaller increases | percentage of OT-I T cells expressing both CD39 and CD69 ([8]; vehicle 22%): smaller reductions | IL-2 production following restimulation, fold above vehicle control (FIG. 8) (human CD8 T cells [9]; 10 μM HJC-0197, 5 μM ESI-09): 1.8 fold | IL-2 production following restimulation, fold vs vehicle (FIG. 7) (human CD8 T cells [9]; GPR174+A2A inhibitors, overnight restimulation): 3.2 fold

EC50 (GPR174 [2]): 1400 nM
Structure (SMILES): O=C(c1ccccc1)N1CCN(c2cc(N3CCCCC3)c(F)cc2[N+](=O)[O-])CC1 [Compound 6]
